Experimental data from ChEMBL document CHEMBL3603747, “Discovery, design, and synthesis of indole-based EZH2 inhibitors” (Bioorg Med Chem Lett, 2015).

Legend:
Assay type in all cases: ADME, organism-based
[1] = Cmax in CB17 SCID mouse at 200 mg/kg, sc by LC-MS method; design: dose 200 mg/kg, route subcutaneous; settings: in vivo
[2] = Volume of distribution at steady state in CB17 SCID mouse at 1 mg/kg, iv by LC-MS method; settings: in vivo, read-out: Vdss
[3] = AUC in CB17 SCID mouse at 200 mg/kg, sc by LC-MS method; settings: in vivo
[4] = AUC in CB17 SCID mouse at 1 mg/kg, iv by LC-MS method; settings: in vivo

CCS(=O)(=O)N1CCC([C@@H](C)n2c(C)c(C(=O)NCc3c(OC)cc(C)[nH]c3=O)c3ccccc32)CC1
Cmax [1]: 9150 ng/mL
Vd [2]: 0.795 L/kg
AUC [3]: 51000 ng·h/mL
AUC [4]: 362 ng·h/mL
